pKd: −log10 of the molar value. A value given as a limit tells only on which side of the number the result lay.

The assay deals with human TYK2 (JH2domain-pseudokinase) (Homo sapiens (Human), UniProt P29597). Briefly: TYK2 JH2 Domain Binding Assay (KINOMEscan, DiscoveRx). As to conditions: 11-point dilution, duplicate. The gist of the method: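 Kd from duplicate 11-point 3-fold dilutions starting at 30,000 nM, fitted by Hill equation with slope fixed at −1. Compounds (final 0.9% DMSO) displace DNA-tagged HEK293-expressed TYK2 JH2 fusion (<0.1 nM) from ligand-coated beads over 1 h at room temperature; eluted kinase read by qPCR.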
Chain of human TYK2 (JH2domain-pseudokinase) (P29597 556-888): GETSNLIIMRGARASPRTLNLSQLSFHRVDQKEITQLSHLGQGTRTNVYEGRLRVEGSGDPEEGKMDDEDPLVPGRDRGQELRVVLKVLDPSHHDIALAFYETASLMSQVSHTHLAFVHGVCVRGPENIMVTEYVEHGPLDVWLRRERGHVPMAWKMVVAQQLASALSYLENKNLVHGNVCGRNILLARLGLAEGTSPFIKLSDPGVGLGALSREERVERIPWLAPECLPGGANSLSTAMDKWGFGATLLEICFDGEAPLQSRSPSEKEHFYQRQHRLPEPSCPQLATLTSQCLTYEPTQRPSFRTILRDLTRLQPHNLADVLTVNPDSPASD
What is called pKd is the Kd on a negative log10 scale, so that one unit is a factor of ten. Read a high pKd as a small Kd. On to `COCc1nc(-c2ccc(Nc3cc(NC(=O)C4CC4)nc4[nH]c(C)nc34)c(S(C)(=O)=O)c2)sc1C` [I-512, N-(7-((4-(4-(methoxymethyl)-5-methylthiazol-2-yl)-2-(methylsulfonyl)phenyl)amino)-2-methyl-3H-imidazo[4,5-b]pyridin-5-yl)cyclopropanecarboxamide], for which the negative logarithm of the Kd (pKd) was over 10.00.
With `Cc1cnc(-c2ccc(Nc3cc(Nc4cccc(C#N)n4)nc4[nH]c(C(F)F)nc34)c(S(C)(=O)=O)c2)s1` [I-513, 6-((2-(difluoromethyl)-7-((2-(methylsulfonyl)-4-(5-methylthiazol-2-yl)phenyl)amino)-3H-imidazo[4,5-b]pyridin-5-yl)amino)picolinonitrile] the figure was 9.00 to 9.30; with `Cc1nc2c(Nc3ccc(-c4cc(C)n(C)n4)cc3S(C)(=O)=O)cc(Nc3cc4n(n3)CCOC4)nc2[nH]1` [I-514, N5-(6,7-dihydro-4H-pyrazolo[5,1-c][1,4]oxazin-2-yl)-N7-(4-(1,5-dimethyl-1H-pyrazol-3-yl)-2-(methylsulfonyl)phenyl)-2-methyl-3H-imidazo[4,5-b]pyridine-5,7-diamine], over 10.00.
With `CS(=O)(=O)c1cc([C@H]2CCCCO2)ccc1Nc1cc(Nc2cc3n(n2)CCOC3)nc2[nH]c(C(F)F)nc12` [I-515, (R)-2-(difluoromethyl)-N5-(6,7-dihydro-4H-pyrazolo[5,1-c][1,4]oxazin-2-yl)-N7-(2-(methylsulfonyl)-4-(tetrahydro-2H-pyran-2-yl)phenyl)-3H-imidazo[4,5-b]pyridine-5,7-diamine] the figure was over 10.00; with `CS(=O)(=O)c1cc([C@@H]2CCCCO2)ccc1Nc1cc(Nc2cc3n(n2)CCOC3)nc2[nH]c(C(F)F)nc12` [I-516, (S)-2-(difluoromethyl)-N5-(6,7-dihydro-4H-pyrazolo[5,1-c][1,4]oxazin-2-yl)-N7-(2-(methylsulfonyl)-4-(tetrahydro-2H-pyran-2-yl)phenyl)-3H-imidazo[4,5-b]pyridine-5,7-diamine], 9.30 to 10.00.
In the case of `CS(=O)(=O)c1cc([C@H]2CCCCO2)ccc1Nc1cc(Nc2cccc(C(F)(F)F)n2)nc2[nH]c(C(F)F)nc12` [I-517, (R)-2-(difluoromethyl)-N7-(2-(methylsulfonyl)-4-(tetrahydro-2H-pyran-2-yl)phenyl)-N5-(6-(trifluoromethyl)pyridin-2-yl)-3H-imidazo[4,5-b]pyridine-5,7-diamine] it was 9.00 to 9.30; in that of `CS(=O)(=O)c1cc([C@@H]2CCCCO2)ccc1Nc1cc(Nc2cccc(C(F)(F)F)n2)nc2[nH]c(C(F)F)nc12` [I-518, (S)-2-(difluoromethyl)-N7-(2-(methylsulfonyl)-4-(tetrahydro-2H-pyran-2-yl)phenyl)-N5-(6-(trifluoromethyl)pyridin-2-yl)-3H-imidazo[4,5-b]pyridine-5,7-diamine], 8.00 to 9.00.
Compound `Cc1cc(Nc2cc(Nc3ccc(-c4cc(C)n(C)n4)cc3S(C)(=O)=O)c3nc(C(F)F)[nH]c3n2)nc(C)n1` [I-519, 2-(difluoromethyl)-N7-(4-(1,5-dimethyl-1H-pyrazol-3-yl)-2-(methylsulfonyl)phenyl)-N5-(2,6-dimethylpyrimidin-4-yl)-3H-imidazo[4,5-b]pyridine-5,7-diamine] gave a pKd of 9.30 to 10.00.
With `COCc1ccc(Nc2cc(Nc3ccccc3S(C)(=O)=O)c3nc(C(F)F)[nH]c3n2)nn1` [I-520] the figure was 9.30 to 10.00; with `COCc1ccc(Nc2cc(Nc3ccccc3S(C)(=O)=O)c3nc(C)[nH]c3n2)nn1` [I-521], over 10.00.
In the case of `CS(=O)(=O)c1cc(-c2ccn(C3CCOCC3)n2)ccc1Nc1cc(NC(=O)C2CC2)nc2[nH]c(C(F)F)nc12` [I-522] it was 9.30 to 10.00; in that of `Cc1nc2c(Nc3ccc(-c4ccn(C5CCOCC5)n4)cc3S(C)(=O)=O)cc(NC(=O)C3CC3)nc2[nH]1` [I-523], over 10.00.
As to `CCOc1ccc(Nc2cc(Nc3ccccc3S(C)(=O)=O)c3nc(C(F)F)[nH]c3n2)nc1C#N` [I-524], the pKd was 9.30 to 10.00.
With `CCOc1ccc(Nc2cc(Nc3ccccc3S(C)(=O)=O)c3nc(C)[nH]c3n2)nc1C#N` [I-525] the figure was over 10.00.
For `Cc1cc(-c2ccc(Nc3cc(Nc4cc5n(n4)CCOC5)nc4[nH]c(C(F)F)nc34)c(S(C)(=O)=O)c2)nn1C` [I-526], the negative-log Kd (pKd) was over 10.00.
`Cc1cc(Nc2cc(Nc3ccc(-c4ccn(C5CC5)n4)cc3S(C)(=O)=O)c3nc(C(F)F)[nH]c3n2)nc(C)n1` [I-527]: the pKd is 9.30 to 10.00.
With `Cc1cc(Nc2cc(Nc3ccc(-c4ccn(C5CC5)n4)cc3S(C)(=O)=O)c3nc(C)[nH]c3n2)nc(C)n1` [I-528] the figure was 9.30 to 10.00.
With `Cc1cc(Nc2cc(Nc3ccc([C@H]4CCCCO4)cc3S(C)(=O)=O)c3nc(C)[nH]c3n2)nc(C)n1` [I-529] the figure was over 10.00; with `Cc1cc(Nc2cc(Nc3ccc([C@@H]4CCCCO4)cc3S(C)(=O)=O)c3nc(C)[nH]c3n2)nc(C)n1` [I-530], over 10.00.
In the case of `CS(=O)(=O)c1ccccc1Nc1cc(Nc2ccc3c(n2)CCOC3)nc2[nH]c(C(F)F)nc12` [I-531] it was over 10.00; in that of `Cc1nc2c(Nc3ccccc3S(C)(=O)=O)cc(Nc3ccc4c(n3)CCOC4)nc2[nH]1` [I-532], over 10.00; in that of `Cc1c(-c2ccc(Nc3cc(Nc4ccc(C(C)C)c(C#N)n4)nc4[nH]c(C(F)F)nc34)c(S(C)(=O)=O)c2)cnn1C` [I-533], 9.30 to 10.00.
`Cc1cc(C)c(-c2ccc(Nc3cc(NC(=O)C4CC4)nc4[nH]c(C(F)F)nc34)c(S(C)(=O)=O)c2)o1` [I-534] had a pKd of 8.00 to 9.00.
In the case of `Cc1nc2c(Nc3ccc(C4CCC(C)(C)CO4)cc3S(C)(=O)=O)cc(NC(=O)C3CC3)nc2[nH]1` (stereo not shown) [I-536, N-(7-((4-(5,5-dimethyltetrahydro-2H-pyran-2-yl)-2-(methylsulfonyl)phenyl)amino)-2-methyl-3H-imidazo[4,5-b]pyridin-5-yl)cyclopropanecarboxamide] it was over 10.00.
In the case of `Cc1c(-c2ccc(Nc3cc(NC(=O)C4CC4)nc4[nH]c(C(F)F)nc34)c(S(C)(=O)=O)c2)cnn1C1CC1` [I-537, N-(7-((4-(1-cyclopropyl-5-methyl-1H-pyrazol-4-yl)-2-(methylsulfonyl)phenyl)amino)-2-(difluoromethyl)-3H-imidazo[4,5-b]pyridin-5-yl)cyclopropanecarboxamide] it was over 10.00; in that of `COc1c(Nc2cc(Nc3cccc(C#N)n3)nc3[nH]c(C(F)F)nc23)cccc1-c1ncnn1C` [I-538], 9.00 to 9.30; in that of `COc1c(Nc2cc(Nc3cccc(C#N)n3)nc3[nH]c(C)nc23)cccc1-c1ncnn1C` [I-539, 6-((7-((2-methoxy-3-(1-methyl-1H-1,2,4-triazol-5-yl)phenyl)amino)-2-methyl-3H-imidazo[4,5-b]pyridin-5-yl)amino)picolinonitrile], 9.00 to 9.30.
With `COc1c(Nc2cc(Nc3cccc(C#N)n3)nc3[nH]c(C)nc23)cccc1-c1cnn(C)n1` [I-540, 6-((7-((2-methoxy-3-(2-methyl-2H-1,2,3-triazol-4-yl)phenyl)amino)-2-methyl-3H-imidazo[4,5-b]pyridin-5-yl)amino)picolinonitrile] the figure was 9.30 to 10.00; with `COc1c(Nc2cc(Nc3cccc(C#N)n3)nc3[nH]c(C(F)F)nc23)cccc1-c1nc(C)nn1C` [I-541, 6-((2-(difluoromethyl)-7-((3-(1,3-dimethyl-1H-1,2,4-triazol-5-yl)-2-methoxyphenyl)amino)-3H-imidazo[4,5-b]pyridin-5-yl)amino)picolinonitrile], 9.00 to 9.30; with `COc1c(Nc2cc(Nc3cccc(C#N)n3)nc3[nH]c(C)nc23)cccc1-c1nc(C)nn1C` [I-542, 6-((7-((3-(1,3-dimethyl-1H-1,2,4-triazol-5-yl)-2-methoxyphenyl)amino)-2-methyl-3H-imidazo[4,5-b]pyridin-5-yl)amino)picolinonitrile], 9.00 to 9.30.
On to `COc1c(Nc2cc(Nc3cccc(C#N)n3)nc3[nH]c(C)nc23)cccc1-c1nc(C)cs1` [I-543, 6-((7-((2-methoxy-3-(4-methylthiazol-2-yl)phenyl)amino)-2-methyl-3H-imidazo[4,5-b]pyridin-5-yl)amino)picolinonitrile], for which the negative logarithm of the Kd (pKd) was 8.00 to 9.00.
With `Cc1nc2c(Nc3ccc(C4CCCO4)cc3S(C)(=O)=O)cc(Nc3cccc(C#N)n3)nc2[nH]1` (stereo not shown) [I-544, 6-((2-methyl-7-((2-(methylsulfonyl)-4-(tetrahydrofuran-2-yl)phenyl)amino)-3H-imidazo[4,5-b]pyridin-5-yl)amino)picolinonitrile] the figure was 9.30 to 10.00; with `Cc1nc(-c2ccc(Nc3cc(NC(=O)C4CC4)nc4[nH]c(C(F)F)nc34)c(S(C)(=O)=O)c2)cs1` [I-545, N-(2-(difluoromethyl)-7-((2-(methylsulfonyl)-4-(2-methylthiazol-4-yl)phenyl)amino)-3H-imidazo[4,5-b]pyridin-5-yl)cyclopropanecarboxamide], 9.30 to 10.00; with `C#Cc1cccc(Nc2cc(Nc3ccccc3S(C)(=O)=O)c3nc(C(F)F)[nH]c3n2)n1` [I-546, 2-(difluoromethyl)-N5-(6-ethynylpyridin-2-yl)-N7-(2-(methylsulfonyl)phenyl)-3H-imidazo[4,5-b]pyridine-5,7-diamine], 8.00 to 9.00.
With `C#Cc1cccc(Nc2cc(Nc3ccccc3S(C)(=O)=O)c3nc(C)[nH]c3n2)n1` [I-547, N5-(6-ethynylpyridin-2-yl)-2-methyl-N7-(2-(methylsulfonyl)phenyl)-3H-imidazo[4,5-b]pyridine-5,7-diamine] the figure was over 10.00; with `CN=[S@@](C)(=O)c1ccccc1Nc1cc(NC(=O)C2CC2)nc2[nH]c(C)nc12` [I-549, N-(7-((2-(N,S-dimethylsulfonimidoyl)phenyl)amino)-2-methyl-3H-imidazo[4,5-b]pyridin-5-yl)cyclopropanecarboxamide], 8.00 to 9.00.
In the case of `Cc1nc2c(Nc3ccc([C@@H]4CCC(C)(C)CO4)cc3S(C)(=O)=O)cc(NC(=O)C3CC3)nc2[nH]1` [I-550, (S)—N-(7-((4-(5,5-dimethyltetrahydro-2H-pyran-2-yl)-2-(methylsulfonyl)phenyl)amino)-2-methyl-3H-imidazo[4,5-b]pyridin-5-yl)cyclopropanecarboxamide] it was over 10.00.

The record behind these values is patent US10647713B2 (Nimbus Lakshmi, Inc., priority 2016, dated 2020).
